Our source for the Km values is publication doi:10.1101/2024.08.30.610474v2 (biorxiv, 2025).

In general, Km refers to the substrate concentration at which the rate is half of its maximum.

In the experiment the test system is honeyeater HK3 (hexokinase 3). The experiment in a line: hexokinase activity assay kit. The class given is biochemical, Phylidonyris novaehollandiae. The following applies: 25 °C; 200 nM enzyme; glucose 0.009375-1 mM; substrate inhibition.

As to `OC[C@H]1OC(O)[C@H](O)[C@@H](O)[C@@H]1O` (stereo partly shown) [glucose], the Km stood at 65.9 µM.
